In brackets after ≈: the same amount, converted by molar mass. Activity calls are given as the source filed them. The calls are words filed in the database; no cut-off is given here.
Columns and labels:
Format in all cases: functional, organism-based
Ceratobasidium cereale [1] = test: Antifungal activity against Ceratobasidium cereale two generation induced iprodione-resistant wheat field isolate HL64R assessed as mycelial growth inhibition in potato dextrose agar media at 25 degC measured after 3 days; conditions: 72 h
Ceratobasidium cereale [2] = test: Antifungal activity against Ceratobasidium cereale two generation induced iprodione-resistant wheat field isolate HQ31R assessed as mycelial growth inhibition in potato dextrose agar media at 25 degC measured after 3 days; conditions: 72 h
Ceratobasidium cereale [3] = test: Antifungal activity against Ceratobasidium cereale two generation induced iprodione-resistant wheat field isolate HN49R assessed as mycelial growth inhibition in potato dextrose agar media at 25 degC measured after 3 days; conditions: 72 h
Ceratobasidium cereale [4] = test: Antifungal activity against Ceratobasidium cereale two generation induced iprodione-resistant wheat field isolate HD10R assessed as mycelial growth inhibition in potato dextrose agar media at 25 degC measured after 3 days; conditions: 72 h
Ceratobasidium cereale [5] = test: Antifungal activity against Ceratobasidium cereale two generation induced iprodione-resistant wheat field isolate HQ12R assessed as mycelial growth inhibition in potato dextrose agar media at 25 degC measured after 3 days; conditions: 72 h
Ceratobasidium cereale [6] = test: Antifungal activity against Ceratobasidium cereale two generation induced iprodione-resistant wheat field isolate HN100R assessed as mycelial growth inhibition in potato dextrose agar media at 25 degC measured after 3 days; conditions: 72 h
Ceratobasidium cereale [7] = test: Antifungal activity against Ceratobasidium cereale two generation induced iprodione-resistant wheat field isolate HQ3R assessed as mycelial growth inhibition in potato dextrose agar media at 25 degC measured after 3 days; conditions: 72 h
Ceratobasidium cereale [8] = test: Antifungal activity against Ceratobasidium cereale iprodione-sensitive wheat field isolate HL64 assessed as mycelial growth inhibition in potato dextrose agar media at 25 degC measured after 3 days; conditions: isolate HL64, 72 h
Ceratobasidium cereale [9] = test: Antifungal activity against Ceratobasidium cereale iprodione-sensitive wheat field isolate HQ31 assessed as mycelial growth inhibition in potato dextrose agar media at 25 degC measured after 3 days; conditions: isolate HQ31, 72 h
Ceratobasidium cereale [10] = test: Antifungal activity against Ceratobasidium cereale iprodione-sensitive wheat field isolate HN49 assessed as mycelial growth inhibition in potato dextrose agar media at 25 degC measured after 3 days; conditions: isolate HN49, 72 h
Ceratobasidium cereale [11] = test: Antifungal activity against Ceratobasidium cereale iprodione-sensitive wheat field isolate HD10 assessed as mycelial growth inhibition in potato dextrose agar media at 25 degC measured after 3 days; conditions: isolate HD10, 72 h
Ceratobasidium cereale [12] = test: Antifungal activity against Ceratobasidium cereale iprodione-sensitive wheat field isolate HQ12 assessed as mycelial growth inhibition in potato dextrose agar media at 25 degC measured after 3 days; conditions: isolate HQ12, 72 h
Ceratobasidium cereale [13] = test: Antifungal activity against Ceratobasidium cereale iprodione-sensitive wheat field isolate HN100 assessed as mycelial growth inhibition in potato dextrose agar media at 25 degC measured after 3 days; conditions: isolate HN100, 72 h
Ceratobasidium cereale [14] = test: Antifungal activity against Ceratobasidium cereale iprodione-sensitive wheat field isolate HQ3 assessed as mycelial growth inhibition in potato dextrose agar media at 25 degC measured after 3 days; conditions: isolate HQ3, 72 h
Ceratobasidium cereale [15] = test: Antifungal activity against Ceratobasidium cereale wheat field isolate assessed as mycelial growth inhibition at 10 ug/mL in potato dextrose agar media 25 degC measured after 5 days
Ceratobasidium cereale [16] = test: Antifungal activity against Ceratobasidium cereale wheat field isolate assessed as mycelial growth inhibition at 25 degC measured after 3 days; conditions: 72 h

CC(C)NC(=O)N1CC(=O)N(c2cc(Cl)cc(Cl)c2)C1=O [IPRODIONE]
EC50 (Ceratobasidium cereale [1]): > 100 µg/mL
EC50 (Ceratobasidium cereale [2]): > 100 µg/mL
EC50 (Ceratobasidium cereale [3]): > 100 µg/mL
EC50 (Ceratobasidium cereale [4]): > 100 µg/mL
EC50 (Ceratobasidium cereale [5]): > 100 µg/mL
EC50 (Ceratobasidium cereale [6]): > 100 µg/mL
EC50 (Ceratobasidium cereale [7]): > 100 µg/mL
EC50 (Ceratobasidium cereale [8]): 0.372 µg/mL (≈ 1.13 µM)
EC50 (Ceratobasidium cereale [9]): 0.35 µg/mL (≈ 1.06 µM)
EC50 (Ceratobasidium cereale [10]): 0.481 µg/mL (≈ 1.46 µM)
EC50 (Ceratobasidium cereale [11]): 0.46 µg/mL (≈ 1.39 µM)
EC50 (Ceratobasidium cereale [12]): 0.725 µg/mL (≈ 2.2 µM)
EC50 (Ceratobasidium cereale [13]): 0.249 µg/mL (≈ 0.754 µM)
EC50 (Ceratobasidium cereale [14]): 0.357 µg/mL (≈ 1.08 µM)
Activity (Ceratobasidium cereale [15]): Active
EC50 (Ceratobasidium cereale [16]): 0.419 µg/mL (≈ 1.27 µM)

CC1COC(Cn2cncn2)(c2ccc(Oc3ccc(Cl)cc3)cc2Cl)O1 (stereo unspecified) [DIFENOCONAZOLE]
EC50 (Ceratobasidium cereale [1]): 0.057 µg/mL (≈ 0.14 µM)
EC50 (Ceratobasidium cereale [2]): 0.06 µg/mL (≈ 0.148 µM)
EC50 (Ceratobasidium cereale [3]): 0.074 µg/mL (≈ 0.182 µM)
EC50 (Ceratobasidium cereale [4]): 0.07 µg/mL (≈ 0.172 µM)
EC50 (Ceratobasidium cereale [5]): 0.092 µg/mL (≈ 0.226 µM)
EC50 (Ceratobasidium cereale [6]): 0.01 µg/mL (≈ 0.0246 µM)
EC50 (Ceratobasidium cereale [7]): 0.034 µg/mL (≈ 0.0837 µM)
EC50 (Ceratobasidium cereale [8]): 0.032 µg/mL (≈ 0.0788 µM)
EC50 (Ceratobasidium cereale [9]): 0.037 µg/mL (≈ 0.0911 µM)
EC50 (Ceratobasidium cereale [10]): 0.07 µg/mL (≈ 0.172 µM)
EC50 (Ceratobasidium cereale [11]): 0.066 µg/mL (≈ 0.162 µM)
EC50 (Ceratobasidium cereale [12]): 0.082 µg/mL (≈ 0.202 µM)
EC50 (Ceratobasidium cereale [13]): 0.095 µg/mL (≈ 0.234 µM)
EC50 (Ceratobasidium cereale [14]): 0.04 µg/mL (≈ 0.0985 µM)
EC50 (Ceratobasidium cereale [16]): 0.062 µg/mL (≈ 0.153 µM)

N#Cc1c[nH]cc1-c1cccc2c1OC(F)(F)O2 [FLUDIOXONIL]
EC50 (Ceratobasidium cereale [1]): > 100 µg/mL
EC50 (Ceratobasidium cereale [2]): > 100 µg/mL
EC50 (Ceratobasidium cereale [3]): > 100 µg/mL
EC50 (Ceratobasidium cereale [4]): > 100 µg/mL
EC50 (Ceratobasidium cereale [5]): > 100 µg/mL
EC50 (Ceratobasidium cereale [6]): > 100 µg/mL
EC50 (Ceratobasidium cereale [7]): > 100 µg/mL
EC50 (Ceratobasidium cereale [8]): 0.022 µg/mL (≈ 0.0886 µM)
EC50 (Ceratobasidium cereale [9]): 0.026 µg/mL (≈ 0.105 µM)
EC50 (Ceratobasidium cereale [10]): 0.026 µg/mL (≈ 0.105 µM)
EC50 (Ceratobasidium cereale [11]): 0.05 µg/mL (≈ 0.201 µM)
EC50 (Ceratobasidium cereale [12]): 0.032 µg/mL (≈ 0.129 µM)
EC50 (Ceratobasidium cereale [13]): 0.024 µg/mL (≈ 0.0967 µM)
EC50 (Ceratobasidium cereale [14]): 0.015 µg/mL (≈ 0.0604 µM)
EC50 (Ceratobasidium cereale [16]): 0.033 µg/mL (≈ 0.133 µM)

— ChEMBL document CHEMBL3045321, “Sensitivity to iprodione, difenoconazole and fludioxonil of Rhizoctonia cerealis isolates collected from wheat in China” (Crop Prot, 2011)
